According to patent US6489316B2, “6-(spirocyclopropyl) penicillanic acid 4, 4-dioxides” (priority 2000, dated 2002):
Like-named read-outs stand apart in the source and are kept apart here.

What was measured:
[1] = biological target: Class A(TEM-1) beta-lactamase (Escherichia coli, UniProt P62593); assay: beta-lactamase inhibition, spectrophotometric with nitrocefin; type: biochemical; details: for IC50: 10-minute preincubation of enzyme with inhibitor at 25° C., nitrocefin substrate; for inhibition of class A(TEM-1) enzymes, in words: summary of Table I
[2] = biological target: Class C(AmpC) beta-lactamase (UniProt P00811); assay: as above; type: biochemical; details: for IC50: 10-minute preincubation of enzyme with inhibitor at 25° C., nitrocefin substrate; for inhibition of class C(AmpC) enzymes, in words: summary of Table I
S. marcescens (AmpC) = assay: microbial assay, MIC in broth, antibiotic with inhibitor 1:1; type: cell-based; details: Serratia marcescens, serial two-fold dilutions
Procedure: (§1) Representative Example 9 was tested in a microbial assay in combination with the penicillin antibiotic Piperacillin. In these tests, minimum inhibitory concentration(MIC) are determined in broth using serial two-fold dilutions with a 1:1 ratio of Piperacillin to inhibitor(N. A. Kuck; N. V. Jacobs; P. J. Peterson; W. J. Weiss; and R. T. Testa, in “Antimicrobial Agents and Chemotherapy”, Vol. 33, 1989, pages 1964-1969).

E. coli 300 + (AmpC) = assay: as above; type: cell-based; details: for MIC: Escherichia coli, Table II, combinations 1:1 ratio antibiotic to inhibitor
Procedure: as §1

E. coli + (AmpC) = assay: as above; type: cell-based; details: Escherichia coli, serial two-fold dilutions
Procedure: as §1

[3] = test system: P. aeroginosa (AmpC derepressed); assay: as above; type: cell-based; details: serial two-fold dilutions
Procedure: as §1

E. coli GC 6265 (TEM-1) = assay: as above; type: cell-based; details: for MIC: Escherichia coli, Table II, combinations 1:1 ratio antibiotic to inhibitor
Procedure: as §1

[4] = biological target: Class B(Imi-1) beta-lactamase (Enterobacter cloacae, UniProt Q46991); assay: beta-lactamase inhibition, spectrophotometric with nitrocefin; type: biochemical; details: 10-minute preincubation of enzyme with inhibitor at 25° C., nitrocefin substrate
E. coli + (TEM-1) = assay: microbial assay, MIC in broth, antibiotic with inhibitor 1:1; type: cell-based; details: Table III, serial two-fold dilutions, combinations 1:1 ratio Piperacillin to inhibitor
Procedure: as §1

[5] = Table II, combinations 1:1 ratio antibiotic to inhibitor
[6] = broth, serial two-fold dilutions
[7] = Table II, combinations 1:1 ratio antibiotic to inhibitor, read-out: MIC P. aeroginosa (AmpC derepressed)
[8] = summary of Table II, combined with piperacillin or cefotaxime
[9] = Table III, combinations 1:1 ratio Piperacillin to inhibitor
[10] = Table III, broth, serial two-fold dilutions, combinations 1:1 ratio Piperacillin to inhibitor

Class A(TEM-1) beta-lactamase, sequence (P62593 24-286 limits assumed): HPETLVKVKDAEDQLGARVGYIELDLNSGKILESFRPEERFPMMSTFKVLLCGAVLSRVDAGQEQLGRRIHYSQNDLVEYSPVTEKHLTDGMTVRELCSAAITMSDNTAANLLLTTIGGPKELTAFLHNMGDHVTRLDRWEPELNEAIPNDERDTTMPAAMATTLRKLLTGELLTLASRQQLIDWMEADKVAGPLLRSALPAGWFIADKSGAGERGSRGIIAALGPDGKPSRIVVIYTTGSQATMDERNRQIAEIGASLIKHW
Class B(Imi-1) beta-lactamase, sequence (Q46991 entry or part of it): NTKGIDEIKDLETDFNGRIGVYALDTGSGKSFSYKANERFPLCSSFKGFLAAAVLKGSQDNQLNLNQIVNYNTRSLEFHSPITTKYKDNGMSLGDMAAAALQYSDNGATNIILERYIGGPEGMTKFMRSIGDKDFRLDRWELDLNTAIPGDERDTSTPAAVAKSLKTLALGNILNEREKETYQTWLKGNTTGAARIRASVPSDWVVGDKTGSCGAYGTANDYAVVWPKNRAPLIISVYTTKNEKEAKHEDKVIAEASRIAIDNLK

CC(C)(C)[Si](C)(C)OC1C[C@@]12C(=O)N1[C@@H](C(=O)O)C(C)(C)S(=O)(=O)[C@@H]12 (single isomer, unassigned) [Example 8] showed an IC50 ([1]; IC50 Class A(TEM-1)) of 17000 nM and an IC50 [2] of 1900 nM.
CC(C)(C)[Si](C)(C)OC1CC12C(=O)N1[C@@H](C(=O)O)C(C)(C)S(=O)(=O)[C@@H]12 (single isomer, unassigned) [Example 10] was tested, and the IC50 ([1]; IC50 Class A(TEM-1)) was 12000 nM, the IC50 [2] was 343 nM and the “inhibition of class C(AmpC) enzymes, in words” value [2] was “very potent inhibitors”.
CC1(C)C(C(=O)O)N2C(=O)C3(CC3OC3CCCCC3)C2S1(=O)=O (single isomer, unassigned) [Example 12] showed an IC50 ([1]; IC50 Class A(TEM-1)) of 1700 nM and an IC50 [2] of 32000 nM.
For CC1(C)C(C(=O)O)N2C(=O)C3(CC3OC3CCCCC3)C2S1(=O)=O (single isomer, unassigned) [Example 13], the IC50 ([1]; IC50 Class A(TEM-1)) was 510 nM, the “inhibition of class A(TEM-1) enzymes, in words” value [1] was “potent inhibitors” and the IC50 [2] was 37 nM. The “inhibition of class C(AmpC) enzymes, in words” value [2] was “very potent inhibitors”.
In the case of CC1(C)C(C(=O)O)N2C(=O)C3(CC3OC3CCCCC3)C2S1(=O)=O (single isomer, unassigned) [Example 14], the IC50 ([1]; IC50 Class A(TEM-1)) is reported as 130000 nM and the IC50 [2] is reported as 3160 nM.
In the case of CO/N=C(\C(=O)N[C@@H]1C(=O)N2C(C(=O)O)=C(COC(C)=O)CS[C@H]12)c1csc(N)n1 [Cefotaxime, cefotaxime], the MIC (S. marcescens (AmpC); [5]) is reported as 8 µg/mL, the MIC (E. coli 300 + (AmpC); [6]) is reported as 16 µg/mL and the MIC (E. coli + (AmpC); [5]) is reported as > 64 µg/mL. For the same molecule, the MIC [3, 7] was > 64 µg/mL and the MIC (E. coli GC 6265 (TEM-1); [6]) was 64 µg/mL.
CC(C)(C)[Si](C)(C)O[C@H]1C[C@]12C(=O)N1[C@@H](C(=O)[O-])C(C)(C)S(=O)(=O)[C@@H]12.[Na+] [Example 9, (1R,2S,5R)-2-[(tert-Butyldimethylsilyl)oxy]-3,3-dimethyl-7-oxospiro[cyclopropane-1,6-[4]thia[1]azabicyclo[3.2.0]-heptane]-2-carboxylic acid, Sodium Salt, 4,4-dioxide] was tested, and the IC50 ([1]; read-out: IC50 Class A(TEM-1)) was 650 nM, the “inhibition of class A(TEM-1) enzymes, in words” value [1] was “potent inhibitors” and the “activity as a beta-lactamase inhibitor with E.coli 300+(AmpC), in words” value (E. coli 300 + (AmpC); [8]) was “very potent activity”. The “activity as a beta-lactamase inhibitor with E.coli GC6265 (TEM-1), in words” value (E. coli GC 6265 (TEM-1); [8]) was “very potent activity”, the IC50 [4] was 12000 nM and the IC50 [2] was 21 nM. For the same molecule, the “inhibition of class C(AmpC) enzymes, in words” value [2] was “very potent inhibitors”.
In the case of CCN1CCN(C(=O)N[C@@H](C(=O)N[C@@H]2C(=O)N3[C@@H]2SC(C)(C)[C@@H]3C(=O)O)c2ccccc2)C(=O)C1=O [Piperacillin], the “MIC E. coli + (TEM-1)” value (E. coli + (TEM-1)) is reported as >64 µg/mL, the MIC (S. marcescens (AmpC); [5]) is reported as 32 µg/mL and the MIC (S. marcescens (AmpC); [9]) is reported as 64 µg/mL. The MIC (E. coli 300 + (AmpC); [6]) was 32 µg/mL, the “MIC E. coli 300 + (AmpC)” value (E. coli 300 + (AmpC); [10]) was 32 µg/mL and the MIC (E. coli + (AmpC); [5]) was > 64 µg/mL. The MIC (E. coli + (AmpC); [9]) was 32 µg/mL, the MIC [3, 7] was > 64 µg/mL and the MIC ([3]; Table III, combinations 1:1 ratio Piperacillin to inhibitor, read-out: MIC P. aeroginosa) was > 64 µg/mL. The MIC (E. coli GC 6265 (TEM-1); [6]) was > 64 µg/mL and the “MIC E. coli GC 6265 (TEM-1)” value (E. coli GC 6265 (TEM-1); [10]) was >64 µg/mL.
With CC1(C)[C@H](C(=O)O)N2C(=O)C[C@H]2S1(=O)=O [Sulbactam, reference compound] the IC50 [2] was 65900 nM.
